{"source": "patent US20250057808A1", "about": "“COMPOSITION COMPRISING BETA LACTAM FOR TREATING ALCOHOL DEPENDENCE AND ALCOHOL ASSOCIATED DISEASES OR CONDITIONS” (Temple University of the Commonwealth System of Higher …, priority 2023, published 2025)", "key": {"[1]": {"test_system": "gram-positive and gram-negative bacteria", "conditions": "cited from earlier work"}, "BDNF": {"test_system": "BDNF", "assay": "Western blot BDNF in subregions of mPFC and NAc", "format": "in vivo, Male P rats", "protocol": "All P rats were euthanized by CO2 inhalation and decapitated with a guillotine 24 hours after the final i.p. injection was administered on Day 6 of Week 6. Brains were removed and immediately frozen on dry ice and stored at −80° C. The mPFC subregions (infralimbic cortex and prelimbic cortex) and NAc subregions (core and shell) were dissected using a cryostat machine kept at −20° C. Surgical blades were used to dissect all brain regions following visualized landmarks using the stereotaxic coordinates provided by Paxinos and colleague's rat brain stereotactic atlas. All brain regions were stored in −80° C. Western Blot analyses.\nWestern blot was performed to determine the expression of BDNF, TNF-α, RAGE, HMGβ-1, and β-tubulin in the subregions of mPFC and NAc as preformed in previous studies.\nBrain samples were lysed with a lysing buffer containing protease inhibitors. The amount of protein in each sample was quantified using a detergent compatible protein assay (Bio-Rad, Hercules, CA, USA). Polyacrylamide gels (10%) were loaded with the lysate mixture, and proteins were separated using gel electrophoresis for 1 hour. Proteins were then transferred from the gels onto Polyvinylidene difluoride (PVDF) membranes (BioRad). After transfer, membranes were incubated for 30 minutes in a mixture of nonfat milk in 1×Tris-buffered saline with Tween-20 (TBST) at room temperature. Membranes were then incubated at 4° C. for 24 hours with primary antibodies: anti-rabbit BDNF (1:1000, Abeam, #ab108319), anti-rabbit TNF-α (1:500, Abeam, #ab9739), anti-rabbit HMGβ-1 (1:500, Abeam, #ab18256), and anti-rabbit RAGE (1:1000, Abeam, #ab37407). Anti-mouse-β-tubulin (1:1000, Cell Signaling Technology, #D71G9) was used as a loading control antibody. After incubating for 24 hours, secondary antibody such as donkey anti-rabbit (1:4000, Invitrogen, #31458) or anti-mouse (1:4000, Cell Signaling, #7076S) was added to the membrane for 1 hour at room temperature. The membranes were then washed with 1×TBST three times for 5 minutes each and then dried. Membranes were then incubated in chemiluminescent reagents (Super Signal West Pico, Pierce Inc.) for 2 minutes. Blot images were developed using ChemiDoc. Imaging System and ImageJ software version 1.53a were used to quantify and analyze the expression of BDNF, TNF-α, RAGE, HMGβ-1, and β-tubulin.\nThe data for the water/saline control group were expressed as 100% based on the values corresponding to the ethanol/saline and ethanol/MC-100093 groups for each set of blotting. Thus, the expression of selected proteins for each group (ethanol/saline group or ethanol/MC-100093 group) was calculated relative to the water/saline control group being set to 100%.\nStatistical analyses were performed using GraphPad Prism Version 10. Two-way repeated measures ANOVA followed by Bonferroni post-hoc tests were used to compare water and ethanol intake, and body weight, amongst water group, ethanol/saline group and ethanol/MC-100093 group. A one-way ANOVA test was performed to compare the expression of the studied proteins in selected brain regions in water/saline, ethanol/saline and ethanol/MC-100093 groups. Statistical significance was determined by a p-value of or less than 0.05."}, "xCT": {"test_system": "xCT", "assay": "Western blot xCT expression in NAc-core, NAc-shell and liver (50 mg/kg study)", "format": "in vivo, P rats", "conditions": "MC-100093 50 mg/kg or ceftriaxone 200 mg/kg i.p. 5 days; for Protein expression of xCT in the NAc-shell: vs Ethanol group", "protocol": "We used micro-punch procedure to dissect the subregions of the NAc such as NAc-core and NAc-shell as well as the subregions of prefrontal cortex such as infralimbic (IL) and prelimbic (PL) from the brain on day 6 after the last injection day. P rats were removed from the cage and rapidly euthanized by CO2 inhalation followed by rapid decapitation with a guillotine. Brains were isolated and immediately frozen on dry ice and stored at −80° C. The stereotaxic coordinates provided by Paxinos and colleague's rat brain stereotactic atlas was used to isolate NAc-core and NAc-shell using a cryostat apparatus (−20° C.), which then kept at −80° C. for later western blot analyses.\nWestern Blot assay was performed to measure changes in the expression of GLT-1, xCT, mGluR1, mGluR5, PPAR-α, PPARγ, GAPDH and β-tubulin in the NAc-core and NAc-shell as described in previous publications. A lysis buffer containing protease and phosphatase inhibitors was used to generate a homogenate of liver, Nac-core, and Nac-shell samples. The amount of protein was quantified using a detergent compatible protein assay (Bio-Rad, Hercules, CA, USA) for each sample. Samples were mixed with laemmli dye and loaded with equal amounts on polyacrylamide gels (10%), which separated the proteins using electrophoresis. After that, polyvinylidene difluoride (PVDF) membranes were used to transfer the proteins electrophoretically from the gels. Membranes were incubated in 5% free-fat milk in Tris-buffered saline with Tween-20 (TBST) for 30-60 minutes at room temperature. Membranes were then incubated with appropriate primary antibodies overnight at 4° C.: rabbit anti-GLT-1 (1:5000, Abcam, ab41621), rabbit anti-xCT (1:2000, Abcam, ab175186), rabbit anti-mGluR1 (1:1000, Abcam, ab82211), rabbit anti-mGluR5 (1:1000, Abcam, ab76316), rabbit anti-PPAR-α (1:1000, Abcam, ab24509), and rabbit anti-PPARγ (1:1000, Abcam, ab209350). Mouse anti-β-tubulin (1:1000; BioLegend) was used as a loading control antibody for the brain samples and rabbit anti-GAPDH (1:5000; cell signaling) was used as a loading control antibody for the liver samples. Membranes were washed five times on the next day with TBST followed by incubation with appropriate secondary antibody (1:5000) for 90 minutes at room temperature. Chemiluminescent reagents (Super Signal West Pico, Pierce Inc.) were used to detect the proteins using a GeneSys imaging system to develop the digitized blot images. Water-control group data were represented as 100% and all other values were expressed relative to control group to detect changes in the expression of the protein of interest in the brain and liver samples.\nAll statistical analyses were conducted with Graphpad Prism software, with p-values of 0.05 or less being statistically significant. We performed a two-way (mixed model) ANOVA followed by Bonferroni multiple comparison post-hoc test to analyze 24 h ethanol consumption, 24 h water consumption, and daily body weight. For the Western blot and oil red O staining analysis, we performed one-way ANOVA with Newman-Keuls as a post hoc multiple comparison test to measure differences between groups as a percentage (relative to control values)."}, "[2]": {"conditions": "human liver microsomes in vitro; cited from earlier work"}, "[3]": {"conditions": "ethanol/MC-100093 group (100 mg/kg i.p.) compared to water/saline and ethanol/saline groups"}}, "note": "Entries after “also recorded” stand apart in the source; their conditions may differ."}
{"smiles": "C[C@@H](O)[C@H]1C(=O)N[C@@H]1[C@@H](C)C(=O)N1CCN(C)CC1", "note": "[MC-100093]", "values": [{"measurement": "Antimicrobial / antibiotic activity", "setting": "[1]", "result": "without any antibiotic action; also recorded: no antibiotic activity; also recorded: no antibiotic actions; also recorded: lacking the antibacterial properties; also recorded: lacks antimicrobial activity; also recorded: does not have any antibiotic action"}, {"measurement": "BDNF expression in the NAc shell", "setting": "BDNF; 100 mg/kg i.p., compared to ethanol/saline group", "result": "significant increase in BDNF expression"}, {"measurement": "Increase in BDNF expression in the NAc core", "setting": "BDNF; 100 mg/kg i.p., compared to water/saline and ethanol/saline groups", "result": 11, "unit": "%"}, {"measurement": "Increase in BDNF expression in the IL (mPFC)", "setting": "BDNF; [3]", "result": 40, "unit": "%"}, {"measurement": "Increase in BDNF expression in the PL (mPFC)", "setting": "BDNF; [3]", "result": 27, "unit": "%"}, {"measurement": "BDNF expression in the subregions of NAc and mPFC (summary)", "setting": "BDNF; male P rats, 100 mg/kg i.p., 100 mg/kg", "result": "attenuated ethanol-induced downregulation of brain derived neurotrophic factor (BDNF) expression"}, {"measurement": "Protein expression of xCT in the NAc-core", "setting": "xCT; among all groups", "result": "non-significant difference; also recorded: no significant difference"}, {"measurement": "Protein expression of xCT in the liver", "setting": "xCT; between all groups", "result": "no significant differences"}, {"measurement": "Protein expression of xCT in the NAc-shell", "setting": "xCT", "result": "significantly higher level of xCT; also recorded: normalized GLT-1 and xCT levels in the NAc-shell"}, {"measurement": "Protein expression of xCT in the NAc-shell", "setting": "xCT; listed as MC-100095", "result": "significantly increased xCT expression"}, {"measurement": "Stability in liver microsomes", "setting": "[2]", "result": "high stability"}]}
